pIC50: −log10 of the molar value.
What was measured:
[1] = target: T1, A disintegrin and metalloproteinase with thrombospondin motifs 5 (Homo sapiens, UniProt Q9UNA0); assay: hADAMTS-5 assay: The basis for the assay is the cleavage of the substrate TBIS-1 (5 FAM-TEGEARGSVILLK (5TAMRA)K-NH2) (SEQ ID NO: 2) by human ADAMTS-5.For the dose response (10 point), 4 μL of a dilution series of compound (2 mM highest concentration, 1/5 dilution in DMSO further diluted 1 in 10 in water, corresponding to a final highest concentration of 20 μM), is transferred to 384 well Fluotrac …
T1 sequence (Q9UNA0 whole entry): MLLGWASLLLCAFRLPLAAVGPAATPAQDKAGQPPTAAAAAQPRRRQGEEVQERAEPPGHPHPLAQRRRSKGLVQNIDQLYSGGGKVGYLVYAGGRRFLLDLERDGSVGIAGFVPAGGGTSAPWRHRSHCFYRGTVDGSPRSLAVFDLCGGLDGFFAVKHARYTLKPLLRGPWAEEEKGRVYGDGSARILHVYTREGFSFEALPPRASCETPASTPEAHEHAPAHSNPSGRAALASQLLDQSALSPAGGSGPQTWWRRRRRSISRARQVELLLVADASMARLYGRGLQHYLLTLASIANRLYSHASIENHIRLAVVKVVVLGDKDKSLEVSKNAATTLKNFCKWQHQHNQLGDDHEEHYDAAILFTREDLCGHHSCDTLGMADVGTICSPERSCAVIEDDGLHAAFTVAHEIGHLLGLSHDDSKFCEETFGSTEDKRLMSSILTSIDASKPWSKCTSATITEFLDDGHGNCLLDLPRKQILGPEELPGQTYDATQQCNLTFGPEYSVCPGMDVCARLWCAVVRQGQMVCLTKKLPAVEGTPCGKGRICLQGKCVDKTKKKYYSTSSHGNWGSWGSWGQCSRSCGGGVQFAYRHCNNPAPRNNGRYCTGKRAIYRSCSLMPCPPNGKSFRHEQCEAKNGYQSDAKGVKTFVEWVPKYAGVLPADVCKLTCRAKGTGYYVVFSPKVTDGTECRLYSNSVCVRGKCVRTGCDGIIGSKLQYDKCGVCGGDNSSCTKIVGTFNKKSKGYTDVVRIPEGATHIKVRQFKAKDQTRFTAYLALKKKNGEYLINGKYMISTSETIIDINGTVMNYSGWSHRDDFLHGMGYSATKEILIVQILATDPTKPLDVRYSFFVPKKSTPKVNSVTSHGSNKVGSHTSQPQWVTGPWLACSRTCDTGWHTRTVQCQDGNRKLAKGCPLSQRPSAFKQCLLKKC

Collagenase 3 = Collagenase 3 (Homo sapiens, UniProt P45452); assay: Human MMP13 is preactivated by incubated the enzyme in the same buffer complemented with 1 mM freshly prepared p-Aminophenylmercuric acetate (AMPA) for 1 h at 37° C.The reaction is initiated by adding to the assay plate 390 MMP FRET Substrate I (10 μL, 2.5 μM) in the same buffer.Finally, the fluorescence is read on the Envision (Perkin Elmer) after an incubation of 45 min at room temperature (Excitation 485 nm, Emission 530).
[2] = target: Disintegrin and metalloproteinase domain-containing protein 17 (Homo sapiens, UniProt P78536); assay: hTACE assay: The basis for the assay is the cleavage of the substrate 5FAM-LAQAVRSSSRK-5TAMRA (SEQ ID No 3) (Anaspec, custom 34891) by human TACE (R&D SYSTEMS INC., Cat#930-ADB).For the dose response (10 point), 4 μL of a dilution series of compound (2 mM highest concentration, 1/5 dilution in DMSO further diluted 1 in 10 in water, corresponding to a final highest concentration of 20 μM), is …
Sequence of Disintegrin and metalloproteinase domain-containing protein 17 (P78536 whole entry, the tested form may be a part): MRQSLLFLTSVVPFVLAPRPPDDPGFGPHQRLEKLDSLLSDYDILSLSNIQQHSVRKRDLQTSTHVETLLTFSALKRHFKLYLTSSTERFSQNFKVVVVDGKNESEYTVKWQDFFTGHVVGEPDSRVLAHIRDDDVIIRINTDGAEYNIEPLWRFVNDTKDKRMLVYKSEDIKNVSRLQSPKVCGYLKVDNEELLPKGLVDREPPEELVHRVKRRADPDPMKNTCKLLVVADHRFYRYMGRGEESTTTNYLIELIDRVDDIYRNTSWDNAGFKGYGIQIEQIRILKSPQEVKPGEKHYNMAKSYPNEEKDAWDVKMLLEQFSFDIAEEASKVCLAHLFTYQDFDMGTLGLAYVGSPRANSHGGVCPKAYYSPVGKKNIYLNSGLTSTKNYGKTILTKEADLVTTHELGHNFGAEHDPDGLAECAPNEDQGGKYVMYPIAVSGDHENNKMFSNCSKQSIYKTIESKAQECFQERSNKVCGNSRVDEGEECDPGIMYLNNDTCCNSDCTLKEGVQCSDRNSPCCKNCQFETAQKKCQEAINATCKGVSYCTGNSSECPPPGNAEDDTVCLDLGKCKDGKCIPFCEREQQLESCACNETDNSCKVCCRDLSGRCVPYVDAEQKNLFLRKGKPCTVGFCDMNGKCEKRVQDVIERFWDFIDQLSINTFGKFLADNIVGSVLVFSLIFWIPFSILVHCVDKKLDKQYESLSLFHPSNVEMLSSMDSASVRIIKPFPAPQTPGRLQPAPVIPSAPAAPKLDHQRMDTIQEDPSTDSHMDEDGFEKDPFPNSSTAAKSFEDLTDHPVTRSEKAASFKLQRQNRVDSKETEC

[3] = target: Matrix metalloproteinase-14 (Homo sapiens, UniProt P50281); assay: hMMP14 assay: The basis for the assay is the cleavage of the substrate 390 MMP FRET Substrate I (Anaspec Cat# AS-27076) by human MMP14 (Biomol, Cat#SE-259).For the dose response (10 point), 4 μL of a dilution series of compound 2 mM highest concentration, 1/5 dilution in DMSO further diluted 1 in 10 in water, corresponding to a final highest concentration of 20 μM), is transferred to 384 well …

Structure (SMILES)	pIC50 [1]	pIC50 (Collagenase 3)	pIC50 [2]	pIC50 [3]
COc1c(Cl)cc(Cl)cc1C1CCN(C(=O)CC[C@@]2(C)NC(=O)NC2=O)CC1	< 7.00	< 7.00		
COc1cc(C2CCN(C(=O)CC[C@H]3NC(=O)NC3=O)CC2)cc(Cl)c1Cl		< 7.00		
COc1cc(C2CCN(C(=O)CC[C@H]3NC(=O)NC3=O)CC2)cc(OC)c1F	< 7.00	< 7.00		< 7.00

The remaining lines, values ahead:

pIC50 [1]	pIC50 (Collagenase 3)	pIC50 [2]	pIC50 [3]	Structure (SMILES)
< 7.00	< 7.00	< 7.00		COc1c(Cl)cc(Cl)cc1C1CCN(C(=O)CC[C@H]2NC(=O)NC2=O)CC1
	< 7.00			COc1cc(C2CCN(C(=O)CC[C@@]3(C)NC(=O)NC3=O)CC2)cc(Cl)c1Cl
< 7.00	< 7.00	< 7.00		COc1cc(C2CCN(C(=O)CCC3(C)NC(=O)NC3=O)CC2)c(C)cc1Cl (stereo not drawn)
